# From patent publication US8435978B2, “Substituted sulfonamide compounds” (Gruenenthal GmbH, priority 2006, dated 2013)
# What was measured:
# [1] = target: T1, human B1R receptor (Homo sapiens, UniProt P46663); experiment: Functional study on the bradykinin receptor 1 (B1R), FLIPR Ca2+ assay, hB1R cells; format: cell-based; details: agonist Lys-Des-Arg9-bradykinin 0.5 nM, % inhibition compared with the maximum achievable inhibition; for B1R Antagonism, human [10 μM] % Inhibition: test substance 10 μM, hB1R CHO K1 cells; for inhibition at 10 µM: CHO-K1, test substance 10 μM, read-out: B1R Antagonism, human [10 μM] % Inhibition
# T1 construct: host or cells: CHO K1 cells (Chinese hamster ovary), stably transfected
# T1 sequence (P46663 1-353): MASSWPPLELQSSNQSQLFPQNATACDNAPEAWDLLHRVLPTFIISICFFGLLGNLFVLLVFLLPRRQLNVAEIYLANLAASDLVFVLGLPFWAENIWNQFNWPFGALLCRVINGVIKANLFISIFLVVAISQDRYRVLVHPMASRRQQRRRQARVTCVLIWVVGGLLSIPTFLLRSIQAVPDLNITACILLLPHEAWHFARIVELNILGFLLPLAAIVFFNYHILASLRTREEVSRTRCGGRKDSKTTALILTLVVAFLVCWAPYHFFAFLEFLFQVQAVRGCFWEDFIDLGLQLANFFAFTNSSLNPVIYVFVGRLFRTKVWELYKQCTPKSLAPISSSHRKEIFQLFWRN
# Procedure: (§1) The agonistic or antagonistic action of substances can be quantified on the bradykinin receptor 1 (B1R) of the species human and rat with ectopically expressing cell lines (CHO K1 cells) and with the aid of a Ca^2+-sensitive dye (Fluo-4) using a fluorescent imaging plate reader (FLIPR). The indication in % activation is based on the Ca^2+ signal after addition of Lys-Des-Arg^9-bradykinin (0.5 nM) or Des-Arg^9-bradykinin (100 nM). Antagonists result in a suppression of the Ca^2+ influx following administration of the agonist. The % inhibition in comparison with the maximum achievable inhibition is indicated.
# (§2) The agonistic or antagonistic action of substances can be determined on the bradykinin receptor 1 (B1R) of the species human and rat using the following assay. According to this assay, the Ca^2+ influx through the channel is quantified with the aid of a Ca^2+-sensitive dye (type Fluo-4, Molecular Probes Europe BV, Leiden, Netherlands) using a Fluorescent Imaging Plate Reader (FLIPR, Molecular Devices, Sunnyvale, USA).
# (§3) Chinese hamster ovary cells (CHO K1 cells) which have been stably transfected with the human B1R gene (hB1R cells, Euroscreen s.a., Gosselies, Belgium) or with the B1R gene of the rat (rB1R cells, Axxam, Milan, Italy) are used. For functional studies, the cells are plated out on black 96-well plates having a clear base (BD Biosciences, Heidelberg, Germany) in a density of 20,000-25,000 cells/well. The cells are incubated overnight at 37° C. and with 5% CO2 in culture medium (hB1R cells: Nutrient Mixture Ham's F12, Gibco Invitrogen GmbH, Karlsruhe, Germany; rB1R cells: D-MEM/F12, Gibco Invitrogen GmbH, Karlsruhe, Germany), with 10 vol. % FBS (fetal bovine serum, Gibco Invitrogen GmbH, Karlsruhe, Germany). On the following day, the cells are loaded for 60 minutes at 37° C. with 2.13 μM Fluo-4 (Molecular Probes Europe BV, Leiden, Netherlands) in HBSS buffer (Hank's buffered saline solution, Gibco Invitrogen GmbH, Karlsruhe, Germany) […] (Sigma-Aldrich, Taufkirchen, Germany) and 10 mM HEPES (Sigma-Aldrich, Taufkirchen, Germany). The plates are then washed twice with HBSS buffer, and HBSS buffer additionally containing 0.1% BSA (bovine serum albumin; Sigma-Aldrich, Taufkirchen, Germany), 5.6 mM glucose and 0.05% gelatin (Merck KGaA, Darmstadt, Germany) is added to the plates. After incubation for a further 20 minutes at room temperature, the plates are inserted into the FLIPR for Ca^2+ measurement. The Ca^2+-dependent fluorescence is measured before and after the addition of substances (λex=488 nm, λem=540 nm). Quantification is carried out by measuring the highest fluorescence intensity (FC, fluorescence counts) over time.
# (§4) The FLIPR protocol consists of 2 substance additions. Test substances (10 μM) are first pipetted onto the cells and the Ca^2+ influx is compared with the control (hB1R: Lys-Des-Arg^9-bradykinin 0.5 nM; rB1R: Des-Arg^9-bradykinin 100 nM). This gives the activation in %, based on the Ca^2+ signal after addition of Lys-Des-Arg^9-bradykinin (0.5 nM) or Des-Arg^9-bradykinin (100 nM).
# (§5) After 10 minutes' incubation, 0.5 nM Lys-Des-Arg^9-bradykinin (hB1R) or 100 nM Des-Arg^9-bradykinin (rB1R) are applied, and the influx of Ca^2+ is likewise determined. Antagonists lead to suppression of the Ca^2+ influx. The % inhibition compared with the maximum achievable inhibition is calculated.
# [2] = target: T2, B1R receptor of the rat (Rattus norvegicus, UniProt P97583); experiment: Functional study on the bradykinin receptor 1 (B1R), FLIPR Ca2+ assay, rB1R cells; format: cell-based; details: agonist Des-Arg9-bradykinin 100 nM, % inhibition compared with the maximum achievable inhibition; for B1R Antagonism, rat [10 μM] % Inhibition: test substance 10 μM, rB1R CHO K1 cells; for inhibition at 10 µM: CHO-K1, test substance 10 μM, read-out: B1R Antagonism, rat [10 μM] % Inhibition
# T2 construct: host or cells: CHO K1 cells (Chinese hamster ovary), stably transfected
# T2 sequence (P97583 1-337): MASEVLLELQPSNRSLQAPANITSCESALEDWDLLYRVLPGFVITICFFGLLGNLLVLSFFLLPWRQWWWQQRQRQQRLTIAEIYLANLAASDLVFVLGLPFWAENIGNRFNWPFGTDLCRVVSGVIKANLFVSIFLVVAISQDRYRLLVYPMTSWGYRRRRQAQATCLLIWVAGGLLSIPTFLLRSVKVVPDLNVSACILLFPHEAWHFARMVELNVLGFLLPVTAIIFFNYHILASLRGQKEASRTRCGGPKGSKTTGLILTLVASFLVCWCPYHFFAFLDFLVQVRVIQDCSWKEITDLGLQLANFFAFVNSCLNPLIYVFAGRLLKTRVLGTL
# Procedure: as §1, §2, §3, §4, §5
Compound,"B1R Antagonism, human [10 μM] % Inhibition [1] [%]","B1R Antagonism, rat [10 μM] % Inhibition [2] [%]",inhibition at 10 µM [1] [%],inhibition at 10 µM [2] [%]
"1-(4-(3-chloro-5-(trifluoromethyl)pyridin-2-yl)piperazin-1-yl)-2-((1-(2,6-dichlorophenylsulfonyl)piperidin-2-yl)methoxy)ethanone [Example 485]",65.25,103.41,–,–
"2-((1-(2,6-dichlorophenylsulfonyl)piperidin-2-yl)methoxy)-N-(2-(piperidin-1-yl)ethyl)acetamide [Example 440]",98.07,95.62,–,–
"2-((1-(2,6-dichlorophenylsulfonyl)piperidin-2-yl)methoxy)-N-(4-(dimethylamino)butyl)acetamide [Example 441]",103.96,98.36,–,–
"COc1cc(C)c(S(=O)(=O)N2CCCC2COCC(=O)NCc2ccc(CN3CCCCC3)cc2)c(C)c1 (stereo not shown) [Example 1, 2-[1-(4-methoxy-2,6-dimethyl-phenylsulfonyl)-pyrrolidin-2-ylmethoxy]-N-(4-piperidin-1-ylmethyl-benzyl)-acetamide]",–,–,105,107
"COc1cc(C)c(S(=O)(=O)N2CCCCC2COCC(=O)NCc2ccc(CN3CCCCC3)cc2)c(C)c1 (stereo not shown) [Example 2, 2-[1-(4-methoxy-2,6-dimethyl-phenylsulfonyl)-piperidin-2-ylmethoxy]-N-(4-piperidin-1-ylmethyl-benzyl)-acetamide]",–,–,104,87.4
"COc1cc(C)c(S(=O)(=O)N2CCCCC2COCC(=O)NCc2ccc(N3CCN(C)CC3)cc2)c(C)c1 (stereo not shown) [Example 3, 2-[1-(4-methoxy-2,6-dimethyl-phenylsulfonyl)-piperidin-2-ylmethoxy]-N-[4-(4-methyl-piperazin-1-yl)-benzyl]-acetamide]",103.84,108.97,–,–
"O=C(COCC1CCCCN1S(=O)(=O)c1c(Cl)cc(Cl)cc1Cl)NCc1ccc(CN2CCCCC2)cc1 (stereo not shown) [Example 4, N-(4-piperidin-1-ylmethyl-benzyl)-2-[1-(2,4,6-trichloro-phenylsulfonyl)-piperidin-2-ylmethoxy]-acetamide]",–,–,104,106
"Cc1cc(C)c(S(=O)(=O)N2Cc3ccccc3CC2COCC(=O)N2CCN(C3CCN(C)CC3)CC2)c(C)c1 (stereo not shown) [Example 5, 1-[4-(1-methyl-piperidin-4-yl)-piperazin-1-yl]-2-[2-(2,4,6-trimethyl-phenylsulfonyl)-1,2,3,4-tetrahydro-isoquinolin-3-ylmethoxy]-ethanone]",–,–,103,103
"O=C(COCC1CCCCN1S(=O)(=O)c1cccc2ccccc12)N1CCCN(Cc2ccccc2)CC1 (stereo not shown) [Example 6, 1-(4-benzyl-[1,4]diazepan-1-yl)-2-[1-(naphthyl-1-sulfonyl)-piperidin-2-ylmethoxy]-ethanone]",102.21,94.88,–,–
"COc1cc(C)c(S(=O)(=O)N2CCCCC2COCC(=O)NCc2ccc(CN3CCN(C)CC3)cc2)c(C)c1 (stereo not shown) [Example 7, 2-[1-(4-methoxy-2,6-dimethyl-phenylsulfonyl)-piperidin-2-ylmethoxy]-N-[4-(4-methyl-piperazin-1-ylmethyl)-benzyl]-acetamide]",–,–,102,99.3
"O=C(COCC1Cc2ccccc2CN1S(=O)(=O)c1ccc(Cl)cc1Cl)N1CCC(N2CCCCC2)CC1 (stereo not shown) [Example 9, 1-(1,4′-bipiperidin-1′-yl)-2-((2-(2,4-dichlorophenylsulfonyl)-1,2,3,4-tetrahydro-isoquinolin-3-yl)methoxy)ethanone]",–,–,102,85.3
"O=C(COCC1CCCN1S(=O)(=O)c1c(Cl)cc(Cl)cc1Cl)NCc1ccc(CN2CCCCC2)cc1 (stereo not shown) [Example 10, N-(4-piperidin-1-ylmethyl-benzyl)-2-[1-(2,4,6-trichloro-phenylsulfonyl)-pyrrolidin-2-ylmethoxy]-acetamide]",–,–,100,91.8
"COc1cc(C)c(S(=O)(=O)N2CCCCC2COCC(=O)NCc2ccc(CN(C)C)cc2)c(C)c1 (stereo not shown) [Example 11, N-(4-dimethylaminomethyl-benzyl)-2-[1-(4-methoxy-2,6-dimethyl-phenylsulfonyl)-piperidin-2-ylmethoxy]-acetamide]",–,–,99.6,106
"COc1ccc(S(=O)(=O)N2CCCCC2CCOCC(=O)N2CCN(CCc3ccccc3)CC2)cc1 (stereo not shown) [Example 91, 2-(2-(1-(4-methoxyphenylsulfonyl)piperidin-2-yl)ethoxy)-1-(4-phenethylpiperazin-1-yl)ethanone]",–,–,48.8,–
"CN(C(=O)COCC1CCCCN1S(=O)(=O)c1ccccc1C(F)(F)F)[C@H]1CCN(Cc2ccccc2)C1 (stereo partly drawn) [Example 218, N—((S)-1-benzylpyrrolidin-3-yl)-N-methyl-2-((1-(2-(trifluoromethyl)phenylsulfonyl)piperidin-2-yl)methoxy)acetamide]",–,–,100,–
"CN1CCN(C2CCN(C(=O)COCC3CCCCN3S(=O)(=O)c3csc4ccccc34)CC2)CC1 (stereo not shown) [Example 572, 2-((1-(benzo[b]thiophen-3-ylsulfonyl)piperidin-2-yl)methoxy)-1-(4-(4-methylpiperazin-1-yl)piperidin-1-yl)ethanone]",–,–,–,99
"CN1CCC(CN2CCN(C(=O)COCC3CCCCN3S(=O)(=O)c3csc4ccccc34)CC2)CC1 (stereo not shown) [Example 573, 2-((1-(benzo[b]thiophen-3-ylsulfonyl)piperidin-2-yl)methoxy)-1-(4-((1-methylpiperidin-4-yl)methyl)piperazin-1-yl)ethanone]",–,–,–,101
"CN(C(=O)COCC1CCCCN1S(=O)(=O)c1c(Cl)cc(C(F)(F)F)cc1Cl)[C@H]1CCN(Cc2ccccc2)C1 (stereo partly drawn) [Example 574, N—((S)-1-benzylpyrrolidin-3-yl)-2-((1-(2,6-dichloro-4-(trifluoromethyl)phenylsulfonyl)piperidin-2-yl)methoxy)-N-methylacetamide]",–,–,90,–
